This is an account of results in patent publication US10624920B2, “Use of alginate oligomers in combating biofilms” (Algipharma AS, priority 2007, dated 2020).

Assay type in all cases: cell-based
Assay [1] relates to Pseudomonas aeruginosa biofilms. As to the kind of experiment: MBEC assay, Pseudomonas biofilms generated 6 hr with mucin, pretreated overnight with alginate oligomer and mucin, then antibiotic. The note with it: 6 hr biofilm with mucin. The protocol: (§1) The MBEC method used was adapted from Moskowitz S M, et al (2004) J Clin Microbiol 42:1915-1922. After retrieval from −80° C. storage, bacterial isolates were grown on BA and then grown overnight in TSB. After dilution of the bacterial cultures to 0.5 McFarland in CAMHB with or without mucin (2.5 g/l), 100 μl was transferred to the wells of a flat-bottom 96-well microtiter plate. In Example 3, bacterial cultures were diluted to 0.5 McFarland in CAMHB with mucin (2.5 g/1) and alginate and 100 μl was transferred to the wells of a flat-bottom 96-well microtiter plate
(§2) Plates were then wrapped in parafilm to prevent dehydration and incubated at 37° C. to allow biofilm formation. Incubation times and conditions varied as described below.
(§3) After biofilm formation, planktonic cells and supernatant were removed and each well was then washed with sterile phosphate buffered saline (PBS). After washing, cells were treated with combinations of alginates and/or antibiotics with or without mucin (2.5 g/l) in 100 μl CAMHB. Plates were then wrapped in parafilm and incubated at 37° C. with gentle tilting. Incubation times and conditions varied as described below. The antibiotics and concentration ranges used are shown below.
(§4) Wells were washed with PBS and 100 μl of each concentration of a serial dilution of antibiotic in CAMHB was then added in duplicate. Plates were again wrapped in parafilm and incubated at 37° C. with gentle tilting overnight.
(§5) In all MBEC assays final cell number was assessed as follows. Wells were washed with PBS and biofilms resuspended in 100 μl CAMHB by vigorous pipetting. The optical density at 620 nm (OD620) was measured on a microplate reader (FLUOstar OPTIMA, BMG LABTECH) immediately (0 h) and after incubation at 37° C. at 6 h and 24 h.
(§6) The MBEC value is that concentration of antibiotic that inhibits all growth of the bacteria in the test sample. Bacterial growth is measured by an increase in the absorbance of the sample. Therefore, a reduction in MBEC value is an indication that the sensitivity of the sample to the antibiotic has been increased (i.e. less antibiotic is needed to prevent bacterial growth).
The MBEC assay described above was followed with mucin present throughout. Biofilms were generated in the presence of mucin during a 6 hour incubation, washed and incubated with G-fragments and mucin overnight. After washing with PBS the cultures were exposed to antibiotics (amikacin, tobramycin, oxytetracycline or a combination of amikacin and oxytetracycline) without mucin. Results are shown graphically in FIG. 4 and in tabulated form in Tables 6 and 7. […] In fact, 6% G fragments caused a the 6 hr MBEC value for oxytetracycline to drop to ⅛th of the control value. The 24 hr MBEC values for amikacin and tobramycin were halved. […]

Assay [2] shares this test system. The experiment in a line: MBEC assay, overnight Pseudomonas biofilms pretreated overnight with G-fragments and mucin, then antibiotic. The note with it: overnight biofilm, mucin 2.5 g/L. The protocol: as §1, §2, §3, §4, §5, §6
The MBEC assay described above was followed. Biofilms were generated in plates overnight without mucin. Following a PBS wash, the biofilms were incubated with 0, 1, 2 or 6% G-fragments and mucin overnight. After washing with PBS cells were incubated overnight with antibiotics (amikacin or oxytetracycline) and without mucin. […] 6 hr MBEC values for amikacin and oxytetracycline were halved by 1% G fragments and quartered by 2 and 6% G fragments. 24 hr MBEC values for oxytetracycline were halved by all concentrations of G fragments. 24 hr MBEC values for amikacin were reduced although it was not possible to quantify this reduction.

The test system is the same in assay [3]. The experiment in a line: MBEC assay, Pseudomonas biofilms generated overnight in the presence of mucin and G-fragments, then antibiotic. How it is done:
as §1, §2, §3, §4, §5, §6
The MBEC assay described above was followed. Biofilms were generated in plates overnight in the presence of mucin and 0, 1, 2 or 6% G fragments. After washing, biofilms were exposed to oxytetracycline (without mucin) overnight. […] 6 hr MBEC values were halved when 2% and 6% G fragments were used.

Setting [4] is: exposed to 0 G-fragments overnight.
Setting [5] is: exposed to 6% G-fragments overnight.
[6] abbreviates: biofilm generated with mucin 2.5 g/L and G-fragments 0.
Where [7] appears, read: biofilm generated with mucin 2.5 g/L and G-fragments 1%.
The mark [8] stands for this setting: biofilm generated with mucin 2.5 g/L and G-fragments 2%.
Setting [9] is: biofilm generated with mucin 2.5 g/L and G-fragments 6%.

Bounds are passed on as bounds.

For the molecule `NCC[C@H](O)C(=O)N[C@@H]1C[C@H](N)[C@@H](O[C@H]2O[C@H](CN)[C@@H](O)[C@H](O)[C@H]2O)[C@H](O)[C@H]1O[C@H]1O[C@H](CO)[C@@H](O)[C@H](N)[C@H]1O` [Amikacin, amikacin], the “MBEC value at 6 hr after overnight exposure to antibiotic” value (shortened to “MBEC value at 6 hr”) in assay [1] (setting [4]) amounted to 64 µg/mL; in assay [1] (setting [5]) it was 16 µg/mL. The “MBEC value at 24 hr after overnight exposure to antibiotic” value (from here on “MBEC value at 24 hr”) in assay [1] (setting [4]) is over 4096 µg/mL; in assay [1] (setting [5]) it was 4096 µg/mL. In addition, the “MBEC value at 6 hours after overnight exposure to antibiotic” value in assay [2] (G-fragments 0) came to 2048 µg/mL; in assay [2] (G-fragments 1%) it was 1024 µg/mL; in assay [2] (G-fragments 2%), 512 µg/mL; in assay [2] (G-fragments 6%), 512 µg/mL. The “MBEC value at 24 hours after overnight exposure to antibiotic” value in assay [2] (G-fragments 0) is over 4096 µg/mL; in assay [2] (G-fragments 1%) it was 4096 µg/mL; in assay [2] (G-fragments 2%), 4096 µg/mL; in assay [2] (G-fragments 6%), 4096 µg/mL.
For the molecule `CN(C)[C@@H]1C(O)=C(C(N)=O)C(=O)[C@@]2(O)C(O)=C3C(=O)c4c(O)cccc4[C@@](C)(O)[C@H]3[C@H](O)[C@@H]12` [Oxytetracycline, oxytetracycline], the “MBEC value at 6 hr” value in assay [3] (setting [6]) was 512 µg/mL; in assay [3] (setting [7]) it was 512 µg/mL; in assay [3] (setting [8]), 256 µg/mL; in assay [3] (setting [9]), 256 µg/mL; in assay [1] (setting [4]), 512 µg/mL; in assay [1] (setting [5]) it was 64 µg/mL. For the same molecule, the “MBEC value at 24 hr” value turned out to be 4096 µg/mL in assay [3] (setting [6]); 2048 µg/mL in assay [3] (setting [7]); 2048 µg/mL in assay [3] (setting [8]); 2048 µg/mL in assay [3] (setting [9]); 1024 µg/mL in assay [1] (setting [4]); 1024 µg/mL in assay [1] (setting [5]). Further, the “MBEC value at 6 hours after overnight exposure to antibiotic” value is 512 µg/mL in assay [2] (G-fragments 0), 256 µg/mL in assay [2] (G-fragments 1%), 128 µg/mL in assay [2] (G-fragments 2%) and 128 µg/mL in assay [2] (G-fragments 6%). For the same molecule, the “MBEC value at 24 hours after overnight exposure to antibiotic” value is 2048 µg/mL in assay [2] (G-fragments 0), 1024 µg/mL in assay [2] (G-fragments 1%), 1024 µg/mL in assay [2] (G-fragments 2%) and 1024 µg/mL in assay [2] (G-fragments 6%).
Consider `NC[C@H]1O[C@H](O[C@H]2[C@H](O)[C@@H](O[C@H]3O[C@H](CO)[C@@H](O)[C@H](N)[C@H]3O)[C@H](N)C[C@@H]2N)[C@H](N)C[C@@H]1O` [Tobramycin, tobramycin], for which, in assay [1] (setting [4]), the “MBEC value at 6 hr” value was 32 µg/mL and the “MBEC value at 24 hr” value turned out to be 512 µg/mL. In assay [1] (setting [5]), the “MBEC value at 6 hr” value turned out to be 8 µg/mL and the “MBEC value at 24 hr” value worked out at 256 µg/mL.
